# Values joined by “and” are separate entries in the source; they are usually repeats but may differ in a detail not shown here. Identical values can stand only once. Like-named read-outs stand apart in the source and are kept apart here.
# What was measured:
# AmpC producers = assay: microdilution with ceftazidime; assay type: cell-based
# Procedure: (§1) To examine the ability of tested agents to inhibit various carbapenemases and AmpC-enzymes, their synergy with antibiotics against β-lactamase-producing strains was assessed by checkerboard microdilution assay, with slight modification. Checkerboards were prepared in microtiter plates, with seven two-fold dilutions of β-lactams (1–64 mg/L) in the rows and three two-fold dilutions of tested agents and PBA (4–16 mg/L) in the columns. Tested agents’ concentrations were limited to the concentrations at which the newest commercially available BLIs (vaborbactam, relebactam, and avibactam) are used in susceptibility testing. Plates were inoculated and incubated as in the MIC microdilution assay. Parallel, MICs of tested agents and PBA alone were determined by the microdilution assay. Following the incubation, antibiotic MICs in the presence of each agent’s concentration were determined. Moreover, for the first well without growth found in each checkerboard row and column along the growth/non-growth interface, the fractional inhibitory concentration index (FICI) was calculated using the formula below:FICI = [(MIC of antibiotic in combination)/(MIC of antibiotic alone)] + [(MIC of the tested agent in combination)/(MIC of tested agent alone)].
# For calculations, all off-scale MICs were converted to the next-highest doubling concentration. Subsequently, both the average and the lowest FICI were interpreted. The interpretation was as follows: FICI ≤ 0.5, synergy; 0.5 < FICI ≤ 4, indifference and FICI > 4, antagonism. Primarily, examined combinations consisted of meropenem (Pol-Aura, Morag, Poland) plus tested agents against carbapenemases-producing strains and ceftazidime (Pol-Aura, Morag, Poland) plus tested agents against AmpC-producing strains. For agents that reduced meropenem MIC at least 4-fold for at least two tested strains, similar assays were performed with imipenem (Pol-Aura, Morag, Poland) and ertapenem (Pol-Aura, Morag, Poland).
# yeasts = assay: antifungal activity, MIC/MFC; assay type: cell-based; conditions: for MFC: yeasts against which fungicidal activity was noticed
# Procedure: (§2) Direct antimicrobial activity against Gram-negative and Gram-positive bacterial strains, as well as against yeast, was examined as previously described by the disc-diffusion test, the MIC determination assay, the MBC (for bacteria), and the MFC (for yeasts) determination tests. All the above-mentioned tests were performed according to EUCAST [71, 72] and CLSI [73, 74, 75, 76, 77] recommendations. The following reference agents were used: nitrofurantoin (for Gram-negative rods), linezolid (for Gram-positive bacteria), and fluconazole (in the case of fungi). The new aromatic diboronic acids were dissolved in DMSO (Sigma, St. Louis, MO, USA). In the disc-diffusion test, the concentration of new agents was 0.4 mg per disc. Depending on the solubility, the MIC and MBC/MFC values were determined up to 100 mg/L for 1k, up to 200 mg/L for 7c, and up to 400 mg/L for the remaining compounds: 1a–1j, 2a–2g, 3a–3f, 4a–4b, 5a–5c, 6a and 7a–7b.
# Gram-positive strains = assay: direct antimicrobial activity, MIC; assay type: cell-based
# Procedure: as §2
# E. coli DH5α = assay: whole cell assay, meropenem MIC with tested agent; assay type: cell-based, Escherichia coli
# Procedure: as §1
# [1] = system: E. coli 82 TR(pl 81), transformant carrying blaKPC-3; assay: whole cell assay, meropenem MIC with tested agent; assay type: cell-based, Escherichia coli; conditions: for MIC: Escherichia coli, read-out: MIC of agent alone
# Procedure: as §1
# [2] = biological target: KPC-3 in purified protein extract from E. coli 82 TR(pl 81) (Klebsiella pneumoniae, UniProt Q9F663, H272Y); assay: nitrocefin hydrolysis test; assay type: biochemical; conditions: single repetitions
# Sequence of KPC-3 in purified protein extract from E. coli 82 TR(pl 81) (Q9F663 25-293 H272Y): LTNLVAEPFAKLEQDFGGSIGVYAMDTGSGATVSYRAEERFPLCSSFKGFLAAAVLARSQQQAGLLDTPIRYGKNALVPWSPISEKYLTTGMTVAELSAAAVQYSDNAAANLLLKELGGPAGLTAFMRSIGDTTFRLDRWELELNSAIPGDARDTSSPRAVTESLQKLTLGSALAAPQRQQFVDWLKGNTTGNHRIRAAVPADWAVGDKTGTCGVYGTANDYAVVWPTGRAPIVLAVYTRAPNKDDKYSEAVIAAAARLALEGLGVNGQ
# Procedure: Overnight culture of E. coli 82 TR(pl 81) in MHB was diluted 1:100 into fresh MHB and incubated with shaking at 37 °C until an OD600 of 1 was attained. […] Further incubation was performed under the same conditions until an OD600 of 3 was reached. The culture with the required OD600 was centrifuged (6700× g, 10 min) and the supernatant was discarded. From the obtained bacterial cell pellet total proteins were extracted with the ReadyPreps™ Protein Preparation Kit (Epicentre Biotechnologies, Madison, WI, USA) and used in the subsequent nitrocefin hydrolysis test, performed in a 96-well microplate. Nitrocefin is a chromogenic cephalosporin substrate routinely used to detect the presence of β-lactamases. First, 20 μL of the protein extract was mixed with 80 μL of tested agents (1a, 2a, 3a and PBA as a reference BLI, each examined at concentrations: 4, 8 and 16 mg/L) or with 80 μL of the phosphate buffer (positive control—corresponding to KPC enzyme activity in the purified total proteins extracted from E. coli 82 TR(pl 81) cells). After 10 min of incubation at the room temperature 100 μL of the nitrocefin (Oxoid, Basingstoke, Hampshire, England) was added to reach its final concentration of 150 μM. β-lactamases hydrolyze the β-lactam ring of nitrocefin, causing its degradation and color change. Nitrocefin hydrolysis was evaluated after 3 min of the incubation at room temperature.
# As in our previous publication the presence of β-lactamases in the purified protein extract with and without tested agents was assessed by the spectrophotometric measurement of the rates of nitrocefin hydrolysis as relative absorbance at 486 nm. The level of the measured absorbance indicated β-lactamase activity. Finally, the difference in the relative absorbance between the positive control and the sample concentration of the tested inhibitors was calculated and expressed as a percentage. A reduction in the relative absorbance level in the presence of a tested agent was taken as an indicator of the BLI activity of a used aromatic diboronic acid. The experiment was performed in triplicate.
# Gram-negative rods = assay: MIC in the presence of efflux pump inhibitor PAβN; assay type: cell-based; conditions: PAβN 20 mg/L
# Procedure: To investigate the contribution of the MDR efflux pumps to the resistance of Gram-negative rods to the newly synthesized compounds, the MIC values of studied agents, with or without the pump inhibitor, PAβN (20 mg/L) (Sigma, St. Louis, MO, USA), were evaluated. The MIC determination was performed in Mueller–Hinton II broth medium (MHB) (Becton, Dickinson and Company, Franklin Lakes, NJ, USA) using 2-fold serial dilutions of tested agents, according to the CLSI guidelines. To minimize the influence of PAβN on the destabilization of bacterial cell covers, the tests were conducted in the presence of 1 mM MgSO4 (Sigma, St. Louis, MO, USA). At least a 4-fold reduction in the MIC value after the addition of PAβN was considered significant.
# [3] = Escherichia coli; read-out: MIC of agent alone
compound,measurement,setting,value
"OB(O)c1ccsc1B(O)O [5a, thiophene-2,3-diboronic acid]","ceftazidime MIC reduction, up to",AmpC producers; agent 4 mg/L,≤ 2 fold
same,"ceftazidime MIC reduction, up to",AmpC producers; agent 8 mg/L,up to 4 fold
same,"ceftazidime MIC reduction, up to",AmpC producers; agent 16 mg/L,≤ 8 fold
"OB(O)c1ccccc1S [7c, 2-mercaptophenylboronic acid]",MFC,yeasts,25 to 200 µg/mL
same,MIC,Gram-positive strains; all tested coccis,12.5 to 25 µg/mL
OB(O)c1cccc(F)c1B(O)O [3b],"ceftazidime MIC reduction, up to",AmpC producers; agent 4 mg/L,≤ 2 fold
same,"ceftazidime MIC reduction, up to",AmpC producers; agent 8 mg/L,up to 4 fold
same,"ceftazidime MIC reduction, up to",AmpC producers; agent 16 mg/L,≤ 8 fold
"OB(O)c1cc(F)ccc1F [7a, 2,5-difluorophenylboronic acid]","ceftazidime MIC reduction, up to",AmpC producers; agent 4 mg/L,≤ 8 fold
same,"ceftazidime MIC reduction, up to",AmpC producers; agent 8 mg/L,up to 16 fold
same,"ceftazidime MIC reduction, up to",AmpC producers; agent 16 mg/L,up to 32 fold
OB(O)c1cccc(B(O)O)c1 [2a],MIC,E. coli DH5α; [3],> 400 µg/mL
same,MIC of meropenem in combination with agent,E. coli DH5α; agent 16 mg/L,0.016 µg/mL
same,MIC,[1],> 400 µg/mL
same,MIC of meropenem in combination with agent,[1]; agent 4 mg/L,1 µg/mL
same,MIC of meropenem in combination with agent,[1]; agent 8 mg/L,1 µg/mL
same,MIC of meropenem in combination with agent,[1]; agent 16 mg/L,1 µg/mL
same,meropenem MIC reduction,"[1]; agent 4, 8 and 16 mg/L",2 fold
same,"Relative absorbance (nitrocefin hydrolysis, 486 nm)",[2]; agent 4 mg/L,1.605 and 1.649 and 1.595
same,"Relative absorbance (nitrocefin hydrolysis, 486 nm)",[2]; agent 8 mg/L,1.520 and 1.499 and 1.528
same,"Relative absorbance (nitrocefin hydrolysis, 486 nm)",[2]; agent 16 mg/L,1.377 and 1.274 and 1.280
OB(O)c1ccc(B(O)O)cc1 [1a],MIC,E. coli DH5α; [3],> 400 µg/mL
same,MIC of meropenem in combination with agent,E. coli DH5α; agent 16 mg/L,0.016 µg/mL
same,MIC,[1],> 400 µg/mL
same,MIC of meropenem in combination with agent,[1]; agent 4 mg/L,0.50 µg/mL
same,MIC of meropenem in combination with agent,[1]; agent 8 mg/L,0.25 µg/mL
same,MIC of meropenem in combination with agent,[1]; agent 16 mg/L,0.125 µg/mL
same,"Relative absorbance (nitrocefin hydrolysis, 486 nm)",[2]; agent 4 mg/L,1.348 and 1.320 and 1.308
same,"Relative absorbance (nitrocefin hydrolysis, 486 nm)",[2]; agent 8 mg/L,1.214 and 1.079 and 1.201
same,"Relative absorbance (nitrocefin hydrolysis, 486 nm)",[2]; agent 16 mg/L,0.998 and 1.066 and 1.076
OB(O)c1cc(F)c(B(O)O)cc1F [1e],MIC,Gram-positive strains; enterococci,100 to 400 µg/mL
same,MIC,Gram-positive strains; staphylococci,12.5 to 50 µg/mL
O=Cc1cc(F)ccc1B(O)O [7b],reduction of MIC in the presence of PAβN,Gram-negative rods,4–16 fold
same,MIC,Gram-positive strains; enterococci,100 to 400 µg/mL
same,MIC,Gram-positive strains; staphylococci,12.5 to 50 µg/mL
OB(O)c1ccc(B(O)O)c(F)c1F [1c],MIC,Gram-positive strains; enterococci,100 to 400 µg/mL
same,MIC,Gram-positive strains; staphylococci,12.5 to 50 µg/mL
OB(O)c1ccc(C(F)(F)F)cc1B(O)O [3e],reduction of MIC in the presence of PAβN,Gram-negative rods,4–16 fold
same,MIC,yeasts; most Candida spp.,3.12 to 6.25 µg/mL
same,MFC,yeasts,400 µg/mL
OB(O)c1cc(C(F)(F)F)cc(B(O)O)c1F [2e],reduction of MIC in the presence of PAβN,Gram-negative rods,4–16 fold
same,MIC,Gram-positive strains; enterococci,50 to 100 µg/mL
same,MIC,Gram-positive strains; staphylococci,0.78 to 12.5 µg/mL
"OB(O)c1ccccc1B(O)O [3a, phenylene-1,2-diboronic acid]",MIC,E. coli DH5α; [3],400 µg/mL
same,MIC of meropenem in combination with agent,E. coli DH5α; agent 16 mg/L,0.016 µg/mL
same,MIC of meropenem in combination with agent,[1]; agent 4 mg/L,0.50 µg/mL
same,meropenem MIC reduction,[1]; agent 4 mg/L,4 fold
same,MIC of meropenem in combination with agent,[1]; agent 8 mg/L,0.125 µg/mL
same,meropenem MIC reduction,[1]; agent 8 mg/L,16 fold
same,MIC of meropenem in combination with agent,[1]; agent 16 mg/L,0.062 µg/mL
same,meropenem MIC reduction,[1]; agent 16 mg/L,32 fold
same,"Relative absorbance (nitrocefin hydrolysis, 486 nm)",[2]; agent 4 mg/L,1.451 and 1.436 and 1.174
same,"Relative absorbance (nitrocefin hydrolysis, 486 nm)",[2]; agent 8 mg/L,1.305 and 1.279 and 1.249
same,"Relative absorbance (nitrocefin hydrolysis, 486 nm)",[2]; agent 16 mg/L,1.090 and 1.114 and 1.077
same,"ceftazidime MIC reduction, up to",AmpC producers; agent 4 mg/L,≤ 2 fold
same,"ceftazidime MIC reduction, up to",AmpC producers; agent 8 mg/L,up to 4 fold
same,"ceftazidime MIC reduction, up to",AmpC producers; agent 16 mg/L,≤ 8 fold
OB(O)c1cc(Br)c(B(O)O)cc1Br [1i],MIC,yeasts; moderate antifungal activity,6.25 to 50 µg/mL
"OB(O)c1ccccc1 [PBA, phenylboronic acid, reference compound]",MIC,"E. coli DH5α; Escherichia coli, read-out: MIC of agent alone",> 400 µg/mL
same,MIC of meropenem in combination with agent,E. coli DH5α; agent 16 mg/L,0.016 µg/mL
same,MIC,[1],> 400 µg/mL
same,MIC of meropenem in combination with agent,[1]; agent 4 mg/L,0.50 µg/mL
same,MIC of meropenem in combination with agent,[1]; agent 8 mg/L,0.25 µg/mL
same,MIC of meropenem in combination with agent,[1]; agent 16 mg/L,0.25 µg/mL
same,"Relative absorbance (nitrocefin hydrolysis, 486 nm)",[2]; agent 4 mg/L,1.093 and 1.087 and 1.232
same,"Relative absorbance (nitrocefin hydrolysis, 486 nm)",[2]; agent 8 mg/L,1.183 and 1.165 and 1.117
same,"Relative absorbance (nitrocefin hydrolysis, 486 nm)",[2]; agent 16 mg/L,0.975 and 0.933 and 0.957
"OB(O)c1ccc(B(O)O)c(B(O)O)c1 [4b, benzene-1,2,4-triboronic]","ceftazidime MIC reduction, up to",AmpC producers; agent 4 mg/L,≤ 2 fold
same,"ceftazidime MIC reduction, up to",AmpC producers; agent 8 mg/L,up to 4 fold
same,"ceftazidime MIC reduction, up to",AmpC producers; agent 16 mg/L,≤ 8 fold
